# Data from US20250145606A1 (Arcus Biosciences, Inc., priority 2023, published 2025).
# Marks after values point to notes of the source that are not given here.
# What was measured:
# FLT3 = FLT3 (Homo sapiens (Human), UniProt P36888); assay: Inhibition of FLT3 kinase activity (HTRF KinEASE-TK); type: biochemical; settings: biochemical
# In short: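 FLT3 tyrosine kinase activity was measured with the HTRF KinEASE-TK kit by following phosphorylation of a biotinylated TK peptide. After the 45 min reaction, 10 μL of detection mix was added: 0.2 μM (2×) Streptavidin-XL665 and 2 μM (2×) TK-Antibody-Cryptate in detection buffer. After 60 min, TR-FRET was read on an Envision as the 665 nm/620 nm emission ratio with 320 nm excitation.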
# beagle dog hepatocytes = assay: Bioactivation assessment in dog hepatocytes; type: in vitro ADME; settings: 5 μM, 4 hours
# Description: (§1) Bioactivation Assessment Procedure
# (§2) Pooled male Sprague Dawley rat (BioIVT), male beagle dog (BioIVT), male cynomolgus monkey (BioIVT), and a 50-donor pool of cryopreserved human hepatocytes (BioIVT) was thawed in pre-warmed 37° C. InVitroGro™ HT media (BioIVT), centrifuged, and resuspended in the InVitroGro™ HI media (BioIVT). The number of viable cells was determined by the Trypan blue exclusion method. The cells were diluted to a concentration of two million viable cells per milliliter (viability >80%) and seeded into round-bottom 96-well plates. The test articles were dissolved in DMSO and further diluted in 50% CH3CN and InVitroGro™ HI media with final concentrations of 0.05% DMSO and 0.5% CH3CN in the incubation mixture. Incubation was performed at a final concentration of one million cells per milliliter and 5 μM test compounds with continuous shaking at 1100 rpm in a 37° C., 5/95% CO2/air incubator with 100% relative humidity. After 4 hours, the samples were quenched by addition of 3 volumes of CH3CN, vortexed for 15 minutes, and centrifuged at 4200 rpm for 15 minutes at 10° C. (Sorvall Legend XTR centrifuge, Thermo Scientific, Langenselbold, Germany). 80 μL of the resulting supernatant was transferred into a new plate and mixed with 160 μL water followed by liquid chromatography-high resolution mass spectrometry (LC-HRMS) analysis.
# (§3) Structural assignments of metabolites were determined through mass spectral analysis. The level of bioactivation was estimated based on the relative peak area of bioactivation products to all identified metabolites. The following equation was used: […]
# (§4) Bioactivation products included glutathione conjugates, imine methides, quinones, diols, and other relevant metabolites.
# CSF1R = CSF1R (Homo sapiens (Human), UniProt P07333); assay: Inhibition of CSF1R kinase activity (HTRF KinEASE-TK); settings: biochemical
# Sequence of CSF1R (P07333 20-972): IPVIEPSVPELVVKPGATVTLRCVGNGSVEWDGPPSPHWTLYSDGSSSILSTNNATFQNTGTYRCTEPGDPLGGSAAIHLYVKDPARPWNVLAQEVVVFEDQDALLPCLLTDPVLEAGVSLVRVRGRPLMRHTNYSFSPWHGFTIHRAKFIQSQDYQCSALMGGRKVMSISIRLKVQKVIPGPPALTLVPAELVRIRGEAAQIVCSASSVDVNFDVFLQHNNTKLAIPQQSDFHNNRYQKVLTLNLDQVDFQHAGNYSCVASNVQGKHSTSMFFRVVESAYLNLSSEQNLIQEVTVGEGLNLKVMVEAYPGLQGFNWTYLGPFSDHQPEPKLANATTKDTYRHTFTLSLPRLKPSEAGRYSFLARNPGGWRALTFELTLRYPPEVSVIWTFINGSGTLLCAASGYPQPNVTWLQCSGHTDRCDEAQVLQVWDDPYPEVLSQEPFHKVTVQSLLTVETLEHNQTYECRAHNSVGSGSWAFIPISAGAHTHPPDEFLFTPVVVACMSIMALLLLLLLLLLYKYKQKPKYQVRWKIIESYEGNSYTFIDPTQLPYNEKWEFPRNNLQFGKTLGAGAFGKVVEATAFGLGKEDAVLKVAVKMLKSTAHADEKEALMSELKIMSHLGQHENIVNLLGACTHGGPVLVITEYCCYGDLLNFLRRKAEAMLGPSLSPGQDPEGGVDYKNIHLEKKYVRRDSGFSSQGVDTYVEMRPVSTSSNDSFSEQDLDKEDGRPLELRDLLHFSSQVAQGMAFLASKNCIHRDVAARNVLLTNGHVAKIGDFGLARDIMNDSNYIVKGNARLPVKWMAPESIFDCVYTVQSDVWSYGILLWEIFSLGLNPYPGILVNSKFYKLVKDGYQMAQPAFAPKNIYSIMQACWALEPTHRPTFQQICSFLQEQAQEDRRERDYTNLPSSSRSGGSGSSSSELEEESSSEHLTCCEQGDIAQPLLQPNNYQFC
# In short: (§5)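 Recombinant kinases (2 nM CSF1R and c-Kit, 10 nM PDGFRα/β, 2× working) preincubated 1 h with compound in 50 mM HEPES pH 7.4, 5 mM MgCl2 (c-Kit) or 10 mM (others), 2 mM MnCl2; 2× ATP: c-Kit 16 μM, PDGFRα 1 μM, PDGFRβ 40 μM, CSF1R 20 μM. 120 min reaction at rt; TR-FRET 665/620 nm; IC50 by 4-parameter fit.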
# PDGFRα = PDGFRα (Homo sapiens (Human), UniProt P16234); assay: Inhibition of PDGFRα kinase activity (HTRF KinEASE-TK); settings: biochemical
# Sequence of PDGFRα (P16234 24-1089): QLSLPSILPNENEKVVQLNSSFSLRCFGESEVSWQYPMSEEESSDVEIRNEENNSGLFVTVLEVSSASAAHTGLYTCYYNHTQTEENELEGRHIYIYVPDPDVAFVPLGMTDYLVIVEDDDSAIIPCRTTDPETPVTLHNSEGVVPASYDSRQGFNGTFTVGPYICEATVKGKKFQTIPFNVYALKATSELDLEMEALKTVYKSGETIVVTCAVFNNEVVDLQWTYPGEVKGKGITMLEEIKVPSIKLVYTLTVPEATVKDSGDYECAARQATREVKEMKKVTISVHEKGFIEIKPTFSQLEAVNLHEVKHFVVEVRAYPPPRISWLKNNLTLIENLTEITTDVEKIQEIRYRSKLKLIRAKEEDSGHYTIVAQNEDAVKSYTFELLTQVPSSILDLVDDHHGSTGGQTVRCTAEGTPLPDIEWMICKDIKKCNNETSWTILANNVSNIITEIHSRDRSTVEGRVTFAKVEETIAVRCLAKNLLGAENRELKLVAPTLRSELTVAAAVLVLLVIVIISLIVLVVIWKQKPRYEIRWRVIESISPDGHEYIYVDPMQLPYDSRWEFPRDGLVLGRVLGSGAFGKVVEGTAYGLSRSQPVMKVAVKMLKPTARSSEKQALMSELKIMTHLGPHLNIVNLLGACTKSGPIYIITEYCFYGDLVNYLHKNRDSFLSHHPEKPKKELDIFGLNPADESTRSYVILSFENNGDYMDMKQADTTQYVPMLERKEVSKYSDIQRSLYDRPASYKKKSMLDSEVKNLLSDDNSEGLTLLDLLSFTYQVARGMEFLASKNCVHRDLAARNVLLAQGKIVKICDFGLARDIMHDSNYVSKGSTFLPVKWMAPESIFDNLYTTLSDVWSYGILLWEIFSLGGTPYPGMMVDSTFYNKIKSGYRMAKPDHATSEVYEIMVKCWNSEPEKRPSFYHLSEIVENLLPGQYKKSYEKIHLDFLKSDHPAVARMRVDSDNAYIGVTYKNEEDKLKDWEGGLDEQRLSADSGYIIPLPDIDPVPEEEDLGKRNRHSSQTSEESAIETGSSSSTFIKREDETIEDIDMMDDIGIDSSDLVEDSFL
# In short: as §5
# PDGFRβ = PDGFRβ (Homo sapiens (Human), UniProt P09619); assay: Inhibition of PDGFRβ kinase activity (HTRF KinEASE-TK); settings: biochemical
# Sequence of PDGFRβ (P09619 33-1106): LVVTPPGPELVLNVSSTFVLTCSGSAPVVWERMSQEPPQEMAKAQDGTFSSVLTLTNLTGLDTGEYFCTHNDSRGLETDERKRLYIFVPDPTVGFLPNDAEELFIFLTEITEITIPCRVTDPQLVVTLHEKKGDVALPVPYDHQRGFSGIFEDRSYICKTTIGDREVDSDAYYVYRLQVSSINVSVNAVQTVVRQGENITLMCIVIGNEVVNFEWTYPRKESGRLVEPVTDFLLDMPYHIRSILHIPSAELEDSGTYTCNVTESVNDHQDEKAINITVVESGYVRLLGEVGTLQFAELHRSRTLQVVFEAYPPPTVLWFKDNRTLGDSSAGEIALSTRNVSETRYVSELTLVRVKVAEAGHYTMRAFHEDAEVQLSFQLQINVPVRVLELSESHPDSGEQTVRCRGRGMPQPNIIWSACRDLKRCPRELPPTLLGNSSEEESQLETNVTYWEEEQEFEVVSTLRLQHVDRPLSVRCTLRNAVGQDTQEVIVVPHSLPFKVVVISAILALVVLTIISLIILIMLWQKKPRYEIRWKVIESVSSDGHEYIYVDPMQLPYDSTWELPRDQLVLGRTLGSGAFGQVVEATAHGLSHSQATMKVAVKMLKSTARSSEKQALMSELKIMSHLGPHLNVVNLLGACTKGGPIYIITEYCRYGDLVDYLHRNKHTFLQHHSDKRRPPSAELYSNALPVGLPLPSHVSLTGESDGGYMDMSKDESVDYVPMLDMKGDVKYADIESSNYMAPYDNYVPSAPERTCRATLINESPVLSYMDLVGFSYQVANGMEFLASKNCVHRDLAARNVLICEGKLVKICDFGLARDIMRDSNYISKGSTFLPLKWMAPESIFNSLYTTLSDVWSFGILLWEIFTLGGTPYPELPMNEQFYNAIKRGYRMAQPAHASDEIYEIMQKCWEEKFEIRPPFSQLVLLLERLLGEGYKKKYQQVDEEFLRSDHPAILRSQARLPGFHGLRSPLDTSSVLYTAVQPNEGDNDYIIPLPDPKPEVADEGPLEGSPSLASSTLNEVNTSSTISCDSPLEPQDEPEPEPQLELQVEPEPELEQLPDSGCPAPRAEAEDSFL
# In short: as §5
# [1] = tested on: Sprague Dawley rat hepatocytes; assay: Bioactivation assessment in rat hepatocytes; type: in vitro ADME; settings: 5 μM, 4 hours
# Description: as §1, §2, §3, §4
# c-Kit = c-Kit (Homo sapiens (Human), UniProt P10721); assay: Inhibition of c-Kit kinase activity (HTRF KinEASE-TK); type: biochemical; settings: biochemical
# Sequence of c-Kit (P10721 26-976): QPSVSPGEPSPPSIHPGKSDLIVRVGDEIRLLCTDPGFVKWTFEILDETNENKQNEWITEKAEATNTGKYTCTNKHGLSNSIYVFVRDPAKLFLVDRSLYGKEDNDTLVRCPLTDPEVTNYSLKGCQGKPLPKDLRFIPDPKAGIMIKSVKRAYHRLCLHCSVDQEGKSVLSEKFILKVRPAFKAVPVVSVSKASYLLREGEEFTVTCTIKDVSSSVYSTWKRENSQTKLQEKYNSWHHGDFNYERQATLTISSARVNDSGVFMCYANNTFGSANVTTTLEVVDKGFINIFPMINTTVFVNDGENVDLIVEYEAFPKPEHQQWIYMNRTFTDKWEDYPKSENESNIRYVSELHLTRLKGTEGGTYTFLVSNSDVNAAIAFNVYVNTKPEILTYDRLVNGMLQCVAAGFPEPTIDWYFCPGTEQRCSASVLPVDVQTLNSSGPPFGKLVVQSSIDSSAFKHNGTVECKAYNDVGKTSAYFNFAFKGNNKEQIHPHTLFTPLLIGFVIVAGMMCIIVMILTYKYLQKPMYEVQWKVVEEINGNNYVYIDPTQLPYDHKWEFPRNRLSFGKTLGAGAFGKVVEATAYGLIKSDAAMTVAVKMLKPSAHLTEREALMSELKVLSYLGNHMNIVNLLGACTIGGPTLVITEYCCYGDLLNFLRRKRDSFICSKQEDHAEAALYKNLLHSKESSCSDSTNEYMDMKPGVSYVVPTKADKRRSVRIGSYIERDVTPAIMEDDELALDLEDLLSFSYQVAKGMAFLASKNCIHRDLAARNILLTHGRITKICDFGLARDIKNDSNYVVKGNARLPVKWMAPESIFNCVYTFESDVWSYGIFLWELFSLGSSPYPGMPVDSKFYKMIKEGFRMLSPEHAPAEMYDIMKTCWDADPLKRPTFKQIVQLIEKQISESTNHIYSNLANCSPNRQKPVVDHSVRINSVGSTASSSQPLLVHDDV
# In short: as §5
# Sequence of FLT3 (P36888 27-993): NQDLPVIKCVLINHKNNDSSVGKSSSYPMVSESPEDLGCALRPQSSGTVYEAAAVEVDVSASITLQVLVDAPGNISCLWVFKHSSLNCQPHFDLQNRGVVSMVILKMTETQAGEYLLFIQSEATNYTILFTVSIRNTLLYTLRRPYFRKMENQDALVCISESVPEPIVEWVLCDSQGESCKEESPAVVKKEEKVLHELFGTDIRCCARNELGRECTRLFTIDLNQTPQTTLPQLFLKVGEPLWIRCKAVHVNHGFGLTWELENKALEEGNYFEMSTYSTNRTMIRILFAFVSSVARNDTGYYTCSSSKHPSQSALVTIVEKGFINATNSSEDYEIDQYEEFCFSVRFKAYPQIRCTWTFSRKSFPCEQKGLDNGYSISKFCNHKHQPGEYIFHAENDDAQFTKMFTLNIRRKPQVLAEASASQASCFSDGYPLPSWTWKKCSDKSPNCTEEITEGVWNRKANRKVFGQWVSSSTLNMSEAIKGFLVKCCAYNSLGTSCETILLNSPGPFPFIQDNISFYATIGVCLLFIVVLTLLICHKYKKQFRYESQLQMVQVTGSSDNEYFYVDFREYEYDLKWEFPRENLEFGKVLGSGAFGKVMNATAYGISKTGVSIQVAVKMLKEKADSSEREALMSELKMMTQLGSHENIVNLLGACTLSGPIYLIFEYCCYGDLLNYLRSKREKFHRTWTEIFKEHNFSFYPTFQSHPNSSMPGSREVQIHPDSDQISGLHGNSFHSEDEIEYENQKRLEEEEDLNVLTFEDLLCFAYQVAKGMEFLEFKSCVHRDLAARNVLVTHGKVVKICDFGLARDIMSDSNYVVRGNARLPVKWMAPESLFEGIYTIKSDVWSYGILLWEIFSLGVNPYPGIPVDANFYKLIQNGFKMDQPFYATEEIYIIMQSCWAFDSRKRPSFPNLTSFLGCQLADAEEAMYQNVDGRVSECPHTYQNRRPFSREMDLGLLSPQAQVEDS
SMILES,IC50 (FLT3; HTRF KinEASE-TK) [nM],"Percent of total metabolism via bioactivation, Dog hepatocytes (beagle dog hepatocytes)",IC50 (CSF1R; HTRF KinEASE-TK) [nM],IC50 (PDGFRα; HTRF KinEASE-TK) [nM],IC50 (PDGFRβ; HTRF KinEASE-TK) [nM],"Percent of total metabolism via bioactivation, Rat hepatocytes [1]",IC50 (c-Kit; HTRF KinEASE-TK) [nM],IC50 (FLT3) [nM],IC50 (CSF1R) [nM],IC50 (PDGFRα) [nM],IC50 (PDGFRβ) [nM],IC50 (c-Kit) [nM]
"Cc1ncc(C(=O)Nc2cc(C(=O)Nc3ccc(C4CC4)cn3)c(F)cc2C)s1 [Example 3, N-[5-[(5-Cyclopropylpyridin-2-yl)carbamoyl]-4-fluoro-2-methylphenyl]-2-methyl-1,3-thiazole-5-carboxamide]",,2%,,,,<0.1%,,> 1000,> 1000,> 1000,> 1000,< 100
"Cc1ncc(C(=O)Nc2cc(C(=O)Nc3ccc(CC(F)(F)F)cn3)c(F)cc2C)s1 [Example 1, N-[4-Fluoro-2-methyl-5-[[5-(2,2,2-trifluoroethyl)pyridin-2-yl]carbamoyl]phenyl]-2-methyl-1,3-thiazole-5-carboxamide]",,<1%^b,,,,3-7%^b,,> 1000,> 1000,> 1000,> 1000,< 100
"Cc1ncc(C(=O)Nc2cc(C(=O)Nc3ccc(CC(F)(F)F)cn3)c(F)cc2Cl)s1 [Example 46, N-[2-chloro-4-fluoro-5-[[5-(2,2,2-trifluoroethyl)pyridin-2-yl]carbamoyl]phenyl]-2-methyl-1,3-thiazole-5-carboxamide]",> 1000,97%,> 1000,> 1000,> 1000,80%,< 100,,,,,
"Cc1ncc(C(=O)Nc2cc(C(=O)Nc3ccc(CC4CC4)cn3)c(F)cc2C)s1 [Example 5, N-[5-[[5-(Cyclopropylmethyl)pyridin-2-yl]carbamoyl]-4-fluoro-2-methylphenyl]-2-methyl-1,3-thiazole-5-carboxamide]",,4%,,,,<1%,,> 1000,> 1000,> 1000,> 1000,< 100

# More lines, main results first:
IC50 (FLT3; HTRF KinEASE-TK) [nM],"Percent of total metabolism via bioactivation, Dog hepatocytes (beagle dog hepatocytes)",IC50 (CSF1R; HTRF KinEASE-TK) [nM],IC50 (PDGFRα; HTRF KinEASE-TK) [nM],IC50 (PDGFRβ; HTRF KinEASE-TK) [nM],"Percent of total metabolism via bioactivation, Rat hepatocytes [1]",IC50 (c-Kit; HTRF KinEASE-TK) [nM],SMILES,IC50 (FLT3) [nM],IC50 (CSF1R) [nM],IC50 (PDGFRα) [nM],IC50 (PDGFRβ) [nM],IC50 (c-Kit) [nM]
> 1000,<1%,> 1000,> 1000,> 1000,2%,< 100,"Cc1ncc(C(=O)Nc2cc(C(=O)Nc3ccc(OC(F)F)cn3)c(F)cc2C)s1 [Example 38, N-[5-[[5-(difluoromethoxy)pyridin-2-yl]carbamoyl]-4-fluoro-2-methylphenyl]-2-methyl-1,3-thiazole-5-carboxamide]",,,,,
,<1%^a,,,,<1%^a,,"Cc1ncc(C(=O)Nc2cc(C(=O)Nc3cnc(OCC(C)(F)F)cn3)c(F)cc2C)s1 [Example 4, N-[5-[[5-(2,2-Difluoropropoxy)pyrazin-2-yl]carbamoyl]-4-fluoro-2-methylphenyl]-2-methyl-1,3-thiazole-5-carboxamide]",> 1000,> 1000,> 1000,> 1000,< 100
,3-4%^a,,,,1-2%ª,,"Cc1ncc(C(=O)Nc2cc(C(=O)Nc3ccc(OC4CC4)cn3)c(F)cc2C)s1 [Example 2, N-[5-[(5-Cyclopropyloxypyridin-2-yl)carbamoyl]-4-fluoro-2-methylphenyl]-2-methyl-1,3-thiazole-5-carboxamide]",> 1000,> 1000,> 1000,> 1000,< 100
